This is an account of results in US9296692B2, “Use of indolyl and indolinyl hydroxamates for treating heart failure of neuronal injury” (TAIPEI MEDICAL UNIVERSITY, priority 2011, dated 2016).

Structures are written as SMILES. Several values for one entry are separate records, joined by “and”; a condition that tells them apart may be missing. Identical values can stand only once.

The subject of test [1] is heart failure (HF) rats. Kind of test: Echocardiography in isoproterenol-induced heart failure (HF) rats. The format is in vivo, Wistar rats.
Procedure: Adult male Wistar rats (each weighted about 240-270 g, and were purchased from BioLASCO Taiwan Co., Ltd) were used in this study. […] Heart failure (HF) rats received one subcutaneous injection of isoproterenol at a dosage of 100 mg/Kg. They were housed in an animal room under temperature control (24-25° C.) and 12:12 light-dark cycle. Standard laboratory rat chow and tap water were available ad libitum. […] A midline thoracotomy was then performed, and the heart was removed, weighed, and dissected from each rat for further analysis. Echocardiograms were performed before the animals were euthanized, using HP Sonos 5500 system with a 15-6L probe (6 to 15 MHz, SONOS 5500, Agilent Technologies, Palo Alto, Calif.) or Vivid I ultrasound cardiovascular system (GE Healthcare, Haifa, Israel). LV end-diastolic diameter (LVEDD), LV end-systolic diameter (LVESD), and wall thickness were measured from M-mode tracings. The LV fractional shortening percentage was calculated as ([LVEDD-LVESD]/LVEDD)×100. The LV ejection fraction was calculated by Techholz's formula. All quantitative data are expressed as the mean±S.E.M, and un-paired T test was used to compare the differences between groups.
The subject of test [2] is TBI rats. Kind of test: Skilled forelimb reaching task in TBI rats. The conditions noted are these: 30 mg/Kg intravenous at 0-7 days after TBI. It counts as in vivo, Sprague-Dawley rats. The text has this: Adult male Sprague-Dawley rats (each weighted about 250-300 g, and were purchased from BioLASCO Taiwan Co., Ltd) were used in this study. The rats were randomly allocated into three groups: (i) TBI+test Compound (e.g., Compound 1 or valproic acid (VPA)), (ii) TBI+VEH (i.e., vehicle-treated TBI rats), and (iii) Sham (sham-operated control). They were housed in an animal room under temperature control (24-25) and 12:12 light-dark cycle. Standard laboratory rat chow and tap water were available ad libitum. All animal experiments were carried out in accordance with the guidelines established by the Institutional Animal Care and Utilization Committee of the Taipei Medical University (Taipei, Taiwan, R.O.C.).
Surgical anesthesia was induced by ketamine (90 mg/kg body weight) and xylazine (10 mg/kg body weight), which were administered intraperitoneally (ip). Following anesthesia, the animals were secured in a stereotaxic frame and ventilated mechanically. A cortical contusion was produced on the exposed cortex using a controlled impactor device TBI-0200 TBI Model system (Precision Systems and Instrumentation). […]
All test animals were trained to criterion on the skilled forelimb reaching task. […] During the initial days of training, limb preference was determined and placement of pellets was adjusted to favor the use of the preferred forelimb. […]

The subject of test [3] is MCAO rats. Kind of test: Infarction volume (TTC staining) in middle cerebral artery occlusion (MCAO) rats. The format is in vivo. The conditions noted are these: 30 mg/Kg intravenous, N=5 per group, 3 days. On the procedure: (§1) In this example, effects of compounds of this invention were varified using ischematic stroke animal model.
(§2) The bilateral common carotid arteries were isolated through a neck incision and occluded with aneurysm clips. […] After 60 minutes, rats were re-anesthetized, the carotid clips were removed, and the neck incision was closed. The rats were returned to their home cage after fully recovered from anesthesia. The sham surgery is similar to the MCAO surgery, which included the step of opening the dura, yet without the steps of isolating, clipping, or coagulating neither the MCA nor carotid vessel.
Compound 1 was dissolved in 5% ethanol, 35% polyethylene glycol and 60% normal saline at a concentration of 15 mg/ml. […]
Medicaments prepared in accordance with steps described in Example 4.2 were given to the 3 groups of MCAO rats of Example 4.1 (N=5, for each group), and the infraction area of these animals were then stained and estimated by similar steps described in Examples 3.4 and 3.5, and results are illustrated in FIGS. 7A and 7B. […] In another example, after induction of MACO, rats were infused with compound 1 at 30 min, 2 hrs, 4 hrs, and 24 hrs, respectively; and the infarction volume was calculated 3 days after MCAO.

Test [4] concerns cAMP response element-binding protein (CREB). Kind of test: Western blot analysis of CREB in brain of MCAO rats. The conditions noted are these: 30 mg/Kg intravenous, RA, LA, RP, LP brain areas. It counts as in vivo. On the procedure: as §1, §2
Compound 1 was dissolved in 5% ethanol, 35% polyethylene glycol and 60% normal saline at a concentration of 15 mg/ml. All test animals received intravenous injection of either compound 1 (30 mg/Kg), valproic acid (VPA, 30 mg/kg) or vehicle (5% ethanol, 35% polyethylene glycol and 60% normal saline) at 0-7 days after MCAO.
Collected protein samples were mixed with Laemli sample buffer. […] The Immunoblottingquantification was fulfilled via Quantity OneTMsoftware (Bio-Rad).
Level of CREB phosphorylaiton was measured by western blot ananlysis in accordance with steps described in Example 4.3. […]

Setting [5] is: HF rats, after treatment, 100 mg/kg oral gavage once daily for 7 days, mean±S.E.M.
Where [6] appears, read: HF rats, before treatment (baseline of the group), n = 7, mean±S.E.M.

For the molecule `NNc1nncc2ccccc12` [hydralazine, reference compound], the Ejection fraction in test [1] (HF rats (isoproterenol 150 mg/kg s.c.), after 10 mg/kg i.p. once daily for 7 days, data not shown) is given as 76±10%; in test [1] (HF rats (isoproterenol 150 mg/kg s.c.), starting value that the ejection fraction increased from, data not shown), 59±4%.
For `CCCC(CCC)C(=O)O` [VPA, valproic acid], the “Behaviour function deficits (skilled forelimb reaching task), FIG. 6” value in test [2] is recorded as “significantly improve the behaviour function deficits caused by TBI”. Also, in test [3], the “Infarction volume, FIG. 7A” value is reported as “significant reduction of infarction volume”. In addition, the “Up-regulation of CREB (p-CREB and t-CREB), FIG. 8” value in test [4] was “up-regulation of cAMP response element-binding protein (CREB)”.
On to `O=C(/C=C/c1ccc2c(ccn2S(=O)(=O)c2ccccc2)c1)NO` [compound 1, 3-(1-benzensulfonyl-1H-indol-5-yl)-N-hydroxy-acrylamide], for which, in test [1] (setting [5]), the Fraction shortening is reported as 47 ± 3 %, the IVSd was 1.3 ± 0.1 mm, the LVEDd is listed as 4.6 ± 0.2 mm and the LVESd is given as 2.4 ± 0.2 mm. In addition, the Ejection fraction in test [1] (HF rats, after treatment, 100 mg/kg oral gavage once daily for 7 days, mean±S.E.M, 100 mg/kg) is 81% and 81 ± 3 %. Also, in test [1] (setting [6]), the Ejection fraction is listed as 68 ± 2%, the Fraction shortening worked out at 38 ± 3%, the IVSd is 1.4 ± 0.1 mm and the LVEDd is on record as 5.4 ± 0.4 mm. In test [1] (setting [6]), the LVESd is listed as 3.4 ± 0.3 mm.
